Source: patent publication US7297704B2, “Cycloalkyfused indole, benzothiophene, benzofuran and idene derivatives” (Wyeth, priority 2005, dated 2007)
Where a name gives a salt, the structure may show the parent alone.

CCC(C)N(C[C@@H]1CCc2[nH]c3ccc(F)cc3c2C1)C[C@H]1COc2ccc3nc(C)ccc3c2O1.Cl.O (stereo partly drawn) (hydrate or solvate) [Example 58, N-{[(3R)-6-Fluoro-2,3,4,9-tetrahydro-1H-carbazol-3-yl]methyl}-N-{[(2S)-8-methyl-2,3-dihydro[1,4]dioxino[2,3-f]quinolin-2-yl]methyl}butan-2-amine monohydrochloride monohydrate] gave a melting point of 235 to 256 °C.
For Cc1ccc2c3c(ccc2n1)OC[C@H](CN(C[C@@H]1CCc2[nH]c4ccc(F)cc4c2C1)C1CCCC1)O3.Cl.O (hydrate or solvate) [Example 59, N-{[(3R)-6-Fluoro-2,3,4,9-tetrahydro-1H-carbazol-3-yl]methyl}-N-{[(2S)-8-methyl-2,3-dihydro[1,4]dioxino[2,3-f]quinolin-2-yl]methyl}cyclopentanamine monohydrochloride monohydrate], the melting point was 225 to 243 °C.
In the case of Cc1ccc2c3c(ccc2n1)OC[C@H](CN(C[C@@H]1CCc2[nH]c4ccc(F)cc4c2C1)C1CCCCC1)O3.Cl.O (hydrate or solvate) [Example 60, N-{[(3R)-6-fluoro-2,3,4,9-tetrahydro-1H-carbazol-3-yl]methyl}-N-{[(2S)-8-methyl-2,3-dihydro[1,4]dioxino[2,3-f]quinolin-2-yl]methyl}cyclohexanamine monohydrochloride monohydrate], the melting point is reported as 207 to 218 °C.
For Cc1ccc2c3c(ccc2n1)OC[C@H](CN(C[C@H]1CCc2[nH]c4ccc(F)cc4c2C1)C(C)C)O3.Cl.O (hydrate or solvate) [Example 61, N-{[(3S)-6-Fluoro-2,3,4,9-tetrahydro-1H-carbazol-3-yl]methyl}-N-{[(2S)-8-methyl-2,3-dihydro[1,4]dioxino[2,3-f]quinolin-2-yl]methyl}propan-2-amine monohydrochloride monohydrate], the melting point was 228 to 240 °C.
In the case of CCC(C)N(C[C@H]1CCc2[nH]c3ccc(F)cc3c2C1)C[C@H]1COc2ccc3nc(C)ccc3c2O1.Cl.O (stereo partly drawn) (hydrate or solvate) [Example 62, N-{[(3S)-6-Fluoro-2,3,4,9-tetrahydro-1H-carbazol-3-yl]methyl}-N-{[(2S)-8-methyl-2,3-dihydro[1,4]dioxino[2,3-f]quinolin-2-yl]methyl}butan-2-amine monohydrochloride monohydrate], the melting point is reported as 246 to 257 °C.
In the case of Cc1ccc2c3c(ccc2n1)OC[C@H](CN(C[C@H]1CCc2[nH]c4ccc(F)cc4c2C1)C1CCCC1)O3.Cl.O (hydrate or solvate) [Example 63, N-{[(3S)-6-Fluoro-2,3,4,9-tetrahydro-1H-carbazol-3-yl]methyl}-N-{[(2S)-8-methyl-2,3-dihydro[1,4]dioxino[2,3-f]quinolin-2-yl]methyl}cyclopentanamine monohydrochloride monohydrate], the melting point is reported as 237 to 254 °C.
For Cc1ccc2c3c(ccc2n1)OC[C@H](CN(C[C@H]1CCc2[nH]c4ccc(F)cc4c2C1)C1CCCCC1)O3.Cl.O (hydrate or solvate) [Example 64, N-{[(3S)-6-Fluoro-2,3,4,9-tetrahydro-1H-carbazol-3-yl]methyl}-N-{[(2S)-8-methyl-2,3-dihydro[1,4]dioxino[2,3-f]quinolin-2-yl]methyl}cyclohexanamine monohydrochloride monohydrate], the melting point was 202 to 208 °C.
Cc1ccc2c3c(ccc2n1)OC[C@H](CN(CC1CCc2c(c4cc(F)ccc4n2C)C1)C1CCCC1)O3.Cl.O (stereo partly drawn) (hydrate or solvate) [Example 66, N-[(6-Fluoro-9-methyl-2,3,4,9-tetrahydro-1H-carbazol-3-yl)methyl]-N-{[(2S)-8-methyl-2,3-dihydro[1,4]dioxino[2,3-f]quinolin-2-yl]methyl}cyclopentanamine monohydrochloride monohydrate] showed a melting point of 206 to 222 °C.
With Cc1ccc2c3c(ccc2n1)OC[C@H](CN(CC1CCc2c(c4cc(F)ccc4n2C)C1)C1CCCCC1)O3.Cl.O (stereo partly drawn) (hydrate or solvate) [Example 67, N-[(6-Fluoro-9-methyl-2,3,4,9-tetrahydro-1H-carbazol-3-yl)methyl]-N-{[(2S)-8-methyl-2,3-dihydro[1,4]dioxino[2,3-f]quinolin-2-yl]methyl}cyclohexanamine monohydrochloride monohydrate] the melting point was 204 to 225 °C.
Work on Cc1ccc2c3c(ccc2n1)OC[C@H](CN(C)C[C@H]1CCc2c(c4cc(F)ccc4n2C)C1)O3.Cl.O (hydrate or solvate) [Example 68, {[(3S)-6-Fluoro-9-methyl-2,3,4,9-tetrahydro-1H-carbazol-3-yl]methyl}methyl{[(2S)-8-methyl-2,3-dihydro[1,4]dioxino[2,3-f]quinolin-2-yl]methyl}amine monohydrochloride monohydrate] yielded a melting point of 248 to 258 °C.
In the case of Cc1ccc2c3c(ccc2n1)OC[C@H](CN(C)C[C@@H]1CCc2c(c4cc(F)ccc4n2C)C1)O3.Cl.O (hydrate or solvate) [Example 69, {[(3R)-6-Fluoro-9-methyl-2,3,4,9-tetrahydro-1H-carbazol-3-yl]methyl}methyl{[(2S)-8-methyl-2,3-dihydro[1,4]dioxino[2,3-f]quinolin-2-yl]methyl}amine monohydrochloride monohydrate], the melting point is reported as 244 to 256 °C.
For Cc1ccc2c3c(ccc2n1)OC[C@H](CNC1CCc2c([nH]c4ccc(F)cc24)C1)O3 (mixture of isomers) (as salt: hydrochloride) [Example 46, 6-Fluoro-N-{[(2S)-8-methyl-2,3-dihydro[1,4]dioxino[2,3-f]quinolin-2-yl]methyl}-2,3,4,9-tetrahydro-1H-carbazol-2-amine], the melting point was 226 to 228 °C (dec.).
In the case of Cc1ccc2c3c(ccc2n1)OC[C@H](CNC[C@H]1CCc2[nH]c4ccccc4c2C1)O3 (single isomer, unassigned) (as salt: hydrochloride) [Example 100a], the melting point is reported as 202 to 205 °C (dec.).
For Cc1ccc2c3c(ccc2n1)OC[C@H](CNC[C@@H]1CCc2[nH]c4ccccc4c2C1)O3 (single isomer, unassigned) (as salt: hydrochloride) [Example 100b], the melting point was 218 to 221 °C (dec.).
Cc1ccc2c3c(ccc2n1)OCC(CNCC1CCc2[nH]c4ccc(Cl)cc4c2C1)O3 (stereo not drawn) [Example 85, (6-Chloro-2,3,4,9-tetrahydro-1H-carbazol-3-ylmethyl)-(8-methyl-2,3-dihydro-[1,4]dioxino[2,3-f]quinolin-2-ylmethyl)-amine] showed a melting point of 235 to 237 °C.
